Tests used:
[1] = rat diuresis study; type: in vivo, rat (male Wistar); details: 2.5 mg/kg PO, average of five animals
Excerpt: Evidence for the inhibition of carbonic anhydrase by compounds of the formula (I) can also be obtained by a diuresis study, such as described by A. Weiner in Goodman and Gilman's The Pharmacological Basis of Therapeutics, 8th ed.; Goodman Gilman, A.; Rall, T. W.; Nies, A. S.; Taylor, P., Eds.; Pergamon Press: New York, 1990; pp 716-718. An increase in urine akalinity accompanied with an increase in water intake and urine output provides an indirect indication of carbonic anhydrase inhibition activity. Male Wistar rats having a weight of 250-300 g were dosed orally (PO) and housed in cages that allowed for the quantitative measure of fluid intake and urine output. Water intake and urine output were measured at 24 hours versus control, whereas urine pH, obtained via pH meter, was measured at 4 and 24 hours versus control. The results of this study, which are the average of five animals, are reported below in Table III. […] Such data is also an indication of the usefulness of the compounds of formula (I) as diuretics in the treatment of hypertension, congestive heart failure and other types of edema. The determination of suitable dosages for such compounds for the treatment of hypertension and congestive heart failure and other types of edema is within the skill of the art.

[2] = test system: tonic extensor seizure; assay: maximal electroshock test (MES); type: in vivo, mouse (albino male CRS-CD1); details: PO, mouse, 4 hr, read-out: % Block (MES Test, mouse)
Description: The compounds of formula (I) are particularly useful as anticonvulsant agents in mammals including humans. The anticonvulsant activity of the subject compounds was determined using a standard "maximal electroshock test" (MES). In this test, activity is indicated by a block of the […] extensor seizure caused by application of an electric shock to mice via corneal electrodes, as described by Swinyard et al. in J. Pharmacol. Expt. Ther. 1952, 106, 319, and recorded as % block. A more recent description of current anticonvulsant drug screening is given by Swinyard in Epilepsia 1978, 19, 409. The anticonvulsant activity of the compounds of this invention tested according to the Swinyard 1952 method is shown in the following Table I.
In the test, albino male CRS-CD1 mice weighing between 18-25 g were used in all experiments (obtained from Charles River). They were allowed food and water ad libitum and were used only once. The electroshock apparatus and the corneal electrodes were purchased from Wahlquist Instrument Company, Salt Lake City, Utah.
Maximal electroshock seizures were induced by the delivery of a 60 Hertz (Hz) current of 50 milliamps (mA) intensity to the mouse through corneal electrodes for 0.2 seconds as originally described by Swinyard et al. (1952). This stimulus intensity is approximately 4 to 6 times the current producing 100% tonic extensor convulsions. During the validation of the MES test, the duration of the various seizure components following maximal electroshock were measured as follows: hindleg tonic flexion was measured from the time of the application of the stimulus to the time of onset of hindleg tonic extension (i.e. when the hindlegs deviate by greater than an angle of 90° from the torso), hindleg tonic extensor was measured from the time of extensor thrust to the onset of generalized clonus, and terminal clonus was measured from the beginning to the end of bilateral rhythmic clonic jerking. Mortality was also recorded. The duration of each seizure component agreed well with the values previously reported by Tedeschi et al. in J. Pharmacol. Expt. Ther. 1955, 116, 107. The corneal electrodes were concave so that saline could be applied to the electrodes to reduce mortality. If this procedure is followed, mortality should always be less than 40% in control mice. Thus, at an electroshock stimulus of 60 Hz, 50 mA and 0.2 seconds duration, the order of convulsive components and the percentage of control animals displaying the behaviors should be as follows: tonic flexion (100%), tonic extension (100%) and clonus (100%) with less than 40% mortality.
For testing compounds, the abolition of the tonic extensor component was the endpoint. Animals were dosed orally (PO) with either vehicle or test drug and at a specified time were given a maximal electric shock through corneal electrodes blotted with saline (as described above). A minimum of 10 animals were used per group and the percentage of animals in the group without tonic hindlimb extension recorded. Determination of ED50 values (that dose of drug inhibiting 50% of the tonic extensor seizures) is shown below in Table I.

[3] = test system: Total Acid Output; assay: pylorus-ligated rat test, gastric antisecretory activity; type: in vivo, rat (male Charles River Sprague-Dawley derived); details: IP, 200 mg/kg
Description: The gastric antisecretory activity of the compounds shown in Table II was determined by the pylorus-ligated rat test described by Shay et al. in Gastroenterol. 1954, 26, 906. In this method, male Charles River Sprague-Dawley derived rats weighing 150-300 grams were deprived of food but not water for 18-24 hours prior to use. Water was withheld during the experiment, however. The rats were weighed, lightly anesthetized with ether and the pylorus ligated according to the method of Shay et al., supra. The treatment or vehicle control was then administered intraperitoneally (IP) or orally (PO). When administered by the IP route, the administration was done 30 minutes before ligation. When administered by the PO route, the administration was done prior to ligation (about 1/2 to 3 hours before). Rats were housed two per cage and sacrificed with carbon dioxide 3 hours after ligation. Their stomachs were removed, rinsed, and contents emptied into a graduated centrifuge tube. The tubes were centrifuged, the volume of gastric juice was recorded, and any samples obviously contaminated by feces, food or blood were eliminated. A 1 mL aliquot of gastric juice was titrated with 0.1N NaOH to a pH of 7.0-7.4. The volume of gastric juice secreted, the acid concentration, and the product of the volume times the concentration, i.e. the total amount of acid secreted, were measured. The total acid output was calculated by multiplying the volume of gastric juices collected times the hydrogen ion concentration (amount of NaOH added to a sample to reach a pH of 7.0-7.4) and dividing that value by 10. The mean value of the total acid output for a control group of rats was then subtracted from the mean value of the total acid output for the group of rats tested at the same dose. That value was then divided by the mean value of total acid output for the control group and the resulting number was multiplied by 100 to provide a Percent Inhibition value, which values are reported in Table II. The […] was determined statistically as the dose at which a 50% inhibition would be realized.

Row | Compound | Urine pH ([1]; 4 hours, control 6.98) | Urine pH ([1]; 24 hours, control 6.43) | Water Intake ([1]; 24 hours, control 15.0) | Urine Output ([1]; 24 hours, control 17.6) | responders at 10 mg/kg ([2]; 10 mg/kg) | Percent Inhibition of Total Acid Output [3] | responders at 35 mg/kg ([2]; 35 mg/kg)
1 | CC1(C)O[C@H]2[C@@H]3OS(=O)(=O)O[C@@H]3CO[C@@]2(COS(=O)(=O)NC2CC2)O1 [Example 9, 2,3-O-(1-Methylethylidene)-4,5-O-sulfonyl-β-D-fructopyranose Cyclopropylsulfamate] | 9.02 | 7.26 | 27.8 mL | 33.2 mL | 90% | 87% | –
2 | CC1(C)O[C@H]2[C@@H]3OS(=O)(=O)O[C@@H]3CO[C@@]2(COS(=O)(=O)N=[N+]=[N-])O1 [Example 15, 2,3-O-(1-Methylethylidene)-4,5-O-sulfonyl-β-D-fructopyranose Azidosulfate] | – | – | – | – | – | 96% | 100%

Source: patent US5242942A, “Anticonvulsant fructopyranose cyclic sulfites and sulfates” (McNeilab, Inc., priority 1992, dated 1993)
